# Reference: patent publication US9440914B2, “Method for treating glioblastomas and other tumors” (THE FEINSTEIN INSTITUTE FOR MEDICAL RESEARCH, priority 2013, dated 2016)
# What was measured:
# ES cells (SK-NEP1) = assay: proliferation assay of ES cells co-cultured with polarized macrophages; format: cell-based, human; conditions: co-culture with polarized macrophages
# Method: (§1) In vivo, human ES cells (SK-NEP1) were surgically implanted into the left kidney of athymic mice. Mice were treated for 7 weeks with CNI-1493 or vehicle. Lung parenchyma was assessed for metastases utilizing both H&E and immunohistochemistry for the ES-specific CD99 and endothelial-specific CD31 markers. In vitro, primary macrophages isolated from human blood were polarized to M1 or M2 phenotypes by exposure to GM-CSF or M-CSF and activated with IFN-γ and LPS or IL-4. Cells were co-cultured with polarized macrophages and underwent proliferation and invasion assays in the presence or absence of CNI-1493.
# [1] = system: GL261 cells with microglia; assay: concentration dependence on microglia-stimulated invasion of glioma cells (24-well transwell); format: cell-based; conditions: GL261 3×10^5, microglia 1.5×10^5, 48 h
# Method: FIG. 11. […] GL261 cells (3×10^5) and microglia (1.5×10^5) were embedded in 50 μl of basement membrane extract in the presence of the indicated concentrations of semapimod (SMP) and CP1213, layered in a 24-well transwell and incubated for 48 h. The number of invading GL261 cells was determined. Data shown represent the average+/−SD of between 2 and 5 independent experiments, each performed in duplicate.
# The concentration dependence of the inhibitory effect of semapimod or CP1213 was investigated on microglia-stimulated invasion of glioma cells. GL261 cells (3×10^5) and microglia (1.5×10^5) were embedded in 50 μl of basement membrane extract in the presence of the indicated concentrations of semapimod (SMP) and CP1213, layered in a 24-well transwell and incubated for 48 h. The number of invading GL261 cells was determined. Data are shown in FIG. 11 and represent the average+/−SD of between 2 and 5 independent experiments, each performed in duplicate. The data support a method of treating a glioma, by inhibiting microglia-stimulated invasion processes with guanylhydrazones.
# SK-NEP1 human ES cells = assay: metastatic Ewing's Sarcoma mouse model (SK-NEP1 implanted into kidney); format: in vivo, athymic mice
# Method: FIG. 8A-8B. CNI-1493 decreases primary tumor size and metastatic burden in a metastatic Ewing's Sarcoma mouse model. 10^6 SK-ENP1 cells were implanted into the kidneys of nude mice and intraperitoneal treatment with CNI-1493 (5 mg/kg/day) or vehicle was initiated one week later. After six weeks of treatment, mice were sacrificed and assessed for primary and metastatic tumor burden. […] Metastatic tumor burden was evaluated with hematoxylin and eosin stained tissue sections by microscopy and calculating surface area per tissue section per mouse using ImageJ software (B).
# as §1
# microglia = assay: glioblastoma cell-stimulated microglia invasion (transwell); format: cell-based, murine; conditions: GL261 in bottom well, microglia in BME, 48 h; read-out: IC50 for inhibition of GL261-stimulated microglia invasion
# Method: To measure the invasion of microglia toward glioblastoma cells in vitro, a variant of the glioblastoma cell invasion assay was used. First, 15×10^4 G1261 cells were plated in MSFM medium overnight and subsequently were placed in serum free medium. Subsequently, 5×10^4 microglia cells were embedded in 50 μL, of 10 mg/mL BME with or without 200 nM semapimod, placed in a 8 μm transwell (previously coated with 1 μg/mL fibronectin on the bottom side of the 8 μm filter to maintain adhesion of the cells that invaded through the filter) and allowed to polymerize for 30 min at 37° C. The transwell chambers were then placed above the previously plated GL261. After 48 h of incubation, the chambers were fixed in 3.7% formaldehyde in PBS.
# The cells were stained with 0.2% crystal violet in 2% ethanol. The remaining BME was carefully removed and the inserts were allowed to dry. Cells attached to the bottom of the filter were imaged as for the invasion assay and the total number of invaded microglia was determined.
# Semapimod inhibits glioblastoma-induced microglia invasion in vitro: Microglia extensively infiltrate glial tumors (5-7). […] This stimulatory effect is abolished by semapimod, with an IC50 of approximately 60 nM.
# GL261 cells = assay: proliferation assay of GL261 co-cultured with microglia (SRB); format: cell-based, murine; conditions: 200 nM, 3 days
# Method: Proliferation Assay: 50,000 GL261 cells were cultured overnight in the absence or presence or microglia (50,000 or 150,000) in serum-containing medium and subsequently cultured in the presence or absence of 200 nM semapimod in a 6-well dish in serum-free conditions. Microglia were added in a ratio of 1:1 or 1:3 GL261:microglia. After 72 h of incubation, plates were washed in PBS and fixed in 3.7% formaldehyde in PBS. In initial experiments, the microglia were stained with tomato lectin for 45 mins and stained all nuclei with DAPI. Ten fluorescence micrographs of each culture were taken with a Zeiss Axiovert-based imaging system. […] Therefore in subsequent experiments the cells were stained with SRB as described for the colony formation assay. After drying, the plates were de-stained with 500 μL of 10 mM Tris base (Sigma). Eluted SRB was measured by absorbance at 490 nm.
# [2] = phase II clinical trial for Crohn's disease; cited from earlier work
# [3] = system: GL261 murine glioblastoma cells co-cultured with microglia; assay: 3-dimensional microglia-glioblastoma co-culture transwell invasion assay (microglia-stimulated GL261 invasion); format: cell-based; conditions: 3:1 glioblastoma cells to microglia, BME, no serum, 48 h; read-out: IC50 for interference with microglia-stimulated GL261 invasion
# Method: Invasion Assays: Glioblastoma and microglial cells were labelled with cell tracker green CMFDA and with cell tracker red CMTPX, respectively, and then embedded in 50 μL of 10 mg/mL basement membrane extract (BME) (Trevigen). The mixture was then placed in a transwell insert (previously coated with 1 μg/mL fibronectin on the bottom side of the 8 μm filter to maintain adhesion of the cells that invaded through the filter) and allowed to polymerize for 30 min at 37° C. Subsequently, serum free medium was added to both wells. To maintain constant cell numbers, cells were plated at a density per invasion chamber of 15×10^4 GL261 cells and 5×10^4 microglia cells in MSFM. Semapimod or its diluent was added at varying concentrations into the BME and in the media above and below the transwell. Invasion chambers were incubated for 48 h and subsequently fixed in 3.7% formaldehyde in phosphate-buffered saline (PBS). The gel in the transwell inserts was carefully removed. Invaded glioblastoma cells were imaged with a Zeiss Axiovision inverted microscope and a 10× objective. All invaded cells were counted.
# To determine the effect of microglia on the invasive properties of glioblastoma cells, a novel 3-dimensional microglia-glioblastoma co-culture assay was designed that provides a better approximation of the in vivo setting than a 2-dimensional configuration. […]
compound,measurement,setting,value
C/C(=N\NC(=N)N)c1cc(NC(=O)CCCCCCCCC(=O)Nc2cc(/C(C)=N/NC(=N)N)cc(/C(C)=N/NC(=N)N)c2)cc(/C(C)=N/NC(=N)N)c1 [semapimod],effect on ES cellular proliferation,ES cells (SK-NEP1),unaffected
same,effect on microglia-stimulated invasion of GL261 glioma cells (concentration dependence),[1],inhibitory effects
same,primary tumor size (effect in words),SK-NEP1 human ES cells; intraperitoneal 5 mg/kg/day,significantly reduce
same,incidence of metastatic disease,"SK-NEP1 human ES cells; intraperitoneal 5 mg/kg/day, p=0.055",21%
same,lung metastases by immunohistochemistry,"SK-NEP1 human ES cells; lung tissue, CD99/CD31",micrometastases confined to the vasculature
same,overall metastatic tumor burden,"SK-NEP1 human ES cells; treated 7 weeks, versus vehicle, p<0.05",significantly decreased
same,primary tumor size,"SK-NEP1 human ES cells; treated 7 weeks, control 7.0±5.2 g, p=0.54, not affected",5.7 ± 3.3 g
same,IC50,microglia,~60 nM
same,effect on microglia-stimulated glioblastoma cell proliferation,GL261 cells,does not affect
same,tolerability in humans,[2],very well tolerated
same,IC50,[3],< 50 nM
